Test results published in US20160367515A1, “Improved delivery of poorly water soluble drugs with aphafetoprotein stabilized with metal ions” (Oy Safemed Ltd., priority 2013, published 2016).

Key:
[1] = test system: breast cancer cells MCF-7; test: Microscopic evaluation (DAPI, cell count by ImageJ) of viability and apoptosis of MCF-7 cells; format: cell-based, human; details: MCF-7, 48 h
Method: Concentrations of the compounds were: rhAFP: 3.0 μM, Ptx: 10 μM. Incubation time was 48 h. Patterns on the top (A): magnification ×100; bottom (B): magnification ×400. Cell nuclei were stained with DAPI and visualized with a fluorescent microscope Axioplan, Zeiss equipped with corresponding color filter kits. Apoptotic nuclei at s panel B are shown by arrows. […] Total number of cells in the control wells was taken as 100%. The average data for five wells±mean square deviation are shown.
rhAFP/Ptx equimolar complex was also tested for its growth suppressive activity against tumor cells in vitro. […] Apoptotic cells with condensed chromatin due to rhAFP/Ptx treatments are shown at FIG. 3B with arrows.
MCF-7 cells were seeded onto the microscopic plates Lab-Tek™ Chamber Slides (Thermo Fisher Scientific-Nunc, Germany) for 48 h to reach of 80% confluence and thereafter were subjected to 48-h treatments with Ptx dissolved in DMSO (10 nM), Zn-rhAFP (1.4 μM), or their combination Zn-rhAFP/Ptx (1.4 μM/10 nM). Similarly, the tests had been performed with non-glycosylated rhAFPo species. Thereafter the cells were fixed with 100% ice-cold acetone and stained with DAPI (Molecular probes, USA). Control cells were incubated without additions. […] The quantity of the cells in the various experimental wells in the selected fields of view was assessed by using ImageJ software. […]

[2] = test system: mammary carcinoma cell line MCF-7; test: MTS cell viability assay, mammary carcinoma MCF-7 cells; format: cell-based, human
Method: Effect of binding of Zn ions to rhAFP and sugar-free rhAFPo species was tested by measuring of their dose-dependent tumor-suppressive effect for mammary carcinoma cell line MCF-7 in vitro, as it was earlier described for natural embryonic eAFP (Dudich et al., Eur. J. Biochem. 1999; 266: 750-761). MCF-7 cells were incubated with various doses of rhAFP (rhAFPo), Zn-rhAFP (Zn-rhAFPo) or with natural embryonic eAFP for 48 h, and thereafter their viability was assessed by the colorimetric MTS assay (FIG. 1A).
Cell viability was assessed by the Promega CellTiter 96 AQueous Non-Radioactive Cell Proliferation MTS assay (Promega, USA) according to manufacturer's instructions. Cells were incubated with various AFP samples for 48 h as described above, followed by incubation with MTS-test reagents and measuring of the light adsorption of the formasan, appeared in the lysed cell supernatants at 492 nm by using VICTOR-1420 multilabel counter (Wallac, Finland). Intact cell cultures incubated without additions were taken as a control. By such a way the quantity of viable cells capable to internalize MTS dye was determined. Results were expressed as the mean optical density (OD)±the standard error of the mean triplicate cultures. The extent of cell viability was calculated as an average OD in experimental wells after addition of testing compounds in relation to untreated control wells, that was taken as 100%
To evaluate the efficacy of preparations rhAFP/Ptx and Zn-rhAFP/Ptx we compared the cytotoxic effect of Ptx alone or that in combination with rhAFP or Zn-rhAFP for taxol-resistant human hepatoma HepG2 cells, human breast carcinoma cells MCF-7, and rat glioma C6 cell lines in vitro. RhAFP or Zn-rhAFP were incubated with various doses of Ptx at 37° C. for 1 h to allow complex formation with molecular ratios rhAFP:Ptx 1:1; 1:3 or 1:5 and thereafter the mixtures were introduced into the cell culture for 48 hrs. Cytotoxicity was measured by MTS assay.
Various doses of rhAFP/Ptx complexes were tested for their effectiveness for inhibition of human mammary carcinoma MCF-7, human hepatoma HepG2, and rat glioma C6 tumor cell growth in vitro. First, we optimized drug concentration and rhAFP amount to the extent that it would not generate an extensive cytotoxic effect alone. Then, the cells were seeded in 96-well plates at a density of 3×10^3/well in 100 μl of medium for 24 hrs to allow adherence. The next day, rhAFP or Zn-rhAFP combined with Ptx at the molecular ratios of 1:1; 1:3 or 1:5 were added into the each well. After 48 h of incubation MTS assays were performed to determine survival rate of the cells. All the experiments were repeated at least three times. The results were expressed as mean±standard error (SE).
The coefficient of drug interaction (CDI) was calculated to analyze the effects of rhAFP and Ptx combinations. CDI was calculated by the equation: CDI=SRAFP/drug[…]/SRAFP×SRdrug, where SRAFP/drug is the average survival rate of combination group, and SRAFP or SRdrug are the average survival rates of the single agent groups. According to our evaluation, CDI values <1, =1 or >1 indicate that the combinations are synergistic, additive or antagonistic respectively.
The values of Zn-rhAFP/Ptx or rhAFP/Ptx complex concentration, which inhibited the cell viability by 50% (IC50) when compared to untreated control, were calculated according to the Hill's equation (sigmoid model of concentration-response curve) from the curves of dependence of the relative percentage of viable cells from AFP concentration expressed as mean values from three independent experiments±SD.
In order to confirm the hypothesis that the combination of Zn-rhAFP and various low water-soluble chemotherapeutic agents would reveal increased anti-tumor efficacy, different cytotoxic compounds were tested in combination with Zn-rhAFP for their cell-killing effect in MCF-7 cells in vitro. […]

CC(=O)O[C@H]1C(=O)[C@@]2(C)[C@H]([C@H](OC(=O)c3ccccc3)[C@]3(O)C[C@H](OC(=O)[C@H](O)[C@@H](NC(=O)c4ccccc4)c4ccccc4)C(C)=C1C3(C)C)[C@]1(OC(C)=O)CO[C@@H]1C[C@@H]2O [Ptx, paclitaxel]
viable cell count ([1]; FIG. 3: rhAFP 3.0 μM, Ptx 10 μM): 54 % of control | cell death ([1]; Ptx 10 nM, Zn-rhAFP 1.4 μM): 55% | IC50 ([2]; Homo sapiens, MCF7, MCF-7, 48 h, compositions of paclitaxel with rhAFP or Zn-rhAFP, mean of three experiments, read-out: IC50): > 10 µM | Coefficient for drug interaction (CDI) ([2]; MCF7 + Zn-rhAFP 1.4 μM (Zn:rhAFP 4:1) + drug, 48 h): 0.80
